Tested on: human myeloma cell line MM.1S
Assay: SILAC acetylated-lysine peptide profiling, HDAC inhibitor vs DMSO (light/heavy ratio)
Format: cell-based
Source text: An embodiment of the invention comprises utilizing the SILAC method in order to quantitate changes in protein expression between two or more populations of cells. The SILAC method is a technique based on mass spectrometry that detects differences in protein abundance among samples using non-radioactive isotopic labeling. The SILAC method is known in the art, and described in detail in Ong et al., “Stable Isotope Labeling by Amino Acids in Cell Culture, SILAC, as a Simple and Accurate Approach to Expression Proteomics”, Molecular & Cellular Proteomics, vol. 1, pp. 376-386 (2002), which is incorporated herein by reference in its entirety.
Briefly, the SILAC method involves growing two populations of cells in cell culture. The first population of cells is grown in growth media containing normal amino acids (“normal media”). The second population of cells is grown in media lacking a standard essential amino acid (such as lysine), but is then supplemented with a non-radioactive, isotopically labeled form of that essential amino acid (such as lysine labeled with ^13C atoms, rather than normal ^12C atoms), which is called “heavy media”. When the two populations of cells are each growing in the medium, they incorporate the amino acids into all of their proteins. The growth of cells maintained in the heavy media is no different from that in normal media. All peptides containing the heavy amino acids are heavier than their normal counterparts. The cells from each of the two populations of cells are lysed. The lysates from each of the two cell populations are then combined. The combined cell lysates are then analyzed by mass spectrometry. Pairs of chemically identical peptides of different stable isotope composition can be differentiated in a mass spectrometer due to their difference in mass. The ratio of peak intensities in the mass spectrum for such peptide pairs reflects the abundance ratio for the two proteins.
This example describes SILAC studies that were performed to compare the effects of three different HDAC inhibitors (Compound A, Compound B, and tubastatin A) to a control on a human multiple myeloma cell line. The HDAC inhibitors were also compared amongst themselves to determine differences in their effects.
A human myeloma cell line MM.1S was grown using either ^12C (light) or ^13C (heavy) lysine containing culture medium. The “heavy” cells were treated with DMSO as the control, and the “light” cells were treated with a single HDAC inhibitor at 37° C. for 6 hours. The heavy and light cells were lysed, and the lysates were mixed in 1:1 ratio and digested with the protease trypsin. The acetylated lysine containing peptides (due to the action of the HDAC inhibitor) in the digested peptide pool were captured by a non-specific anti-acetylated lysine antibody cocktail (the antibodies identify both light and heavy acetylated peptides), and subjected to mass spectrometry analysis in order to identify thousands of individual peptides.
Thousands of peptides were identified in pairs (^12C and ^13C) due to their known mass differences. The amino acid sequence and quantitative ratio (Light/Heavy) of a given peptide in two differentially treated cell lysates were then determined and annotated with their possible protein (gene) sources.
As stated above, three HDAC inhibitors (Compound A, Compound B, and Tubastatin A) were used. Thus, the SILAC method was performed three times, with a different HDAC inhibitor compared to a control each time. Accordingly, there are three pairs of quantitative data in the table below, i.e., Compound A:DMSO, Compound B:DMSO, and Tubastatin A:DMSO. A cut-off of 1.30 fold of change (increase or decrease) was then used to determine “changed” or “+” in the table, and any peptides with a fold of change less than 1.3 fold were determined to be “unchanged” or “0” in the table. Those peptides that were not identified were marked as “NA” in the table. […]

CN1CCc2c(c3ccccc3n2Cc2ccc(C(=O)NO)cc2)C1 [Tub A]
L/H ratio of acetylated peptide ASGLAAGK(ac)GVIVAK (SEQ ID NO: 37) (GART [156], log 2 scale, drug vs DMSO): 0.46 | light to heavy ratio (L/H ratio) of acetylated peptide, log 2 scale (GDASK(ac)EDIDTAMK (SEQ ID NO: 161), Isoform 1 of Hydroxyacyl-coenzyme A dehydrogenase mitochondrial [241], HADH): 0.47 | light to heavy ratio (L/H ratio) of acetylated peptide, log 2 scale (GDGTGGK(ac)SIYGER (SEQ ID NO: 196), Peptidyl-prolyl cis-trans isomerase B [116], PPIB): −0.54 | light to heavy ratio (L/H ratio) of acetylated peptide, log 2 scale (GFAFVTFDDHDSVDK(ac)IVIQK (SEQ ID NO: 165), Isoform A1-B of Heterogeneous nuclear ribonucleoprotein A1 [161], HNRNPA1): −0.53 | light to heavy ratio (L/H ratio) of acetylated peptide, log 2 scale (GFGGK(ac)YGVER (SEQ ID NO: 162), Hematopoietic lineage cell-specific protein [123], HCLS1): 0.77 | light to heavy ratio (L/H ratio) of acetylated peptide, log 2 scale (GHLENNPALEK(ac)LLPHIR (SEQ ID NO: 208), 60S acidic ribosomal protein P0 [77], RPLP0): −0.48 | light to heavy ratio (L/H ratio) of acetylated peptide, log 2 scale (GIVK(ac)DIIHDPGR (SEQ ID NO: 207), 60S ribosomal protein L8 [46], RPL8): −0.54 | light to heavy ratio (L/H ratio) of acetylated peptide, log 2 scale (GLFIIDDK(ac)GILR (SEQ ID NO: 197), Peroxiredoxin-1 [136], PRDX1): −0.77 | light to heavy ratio (L/H ratio) of acetylated peptide, log 2 scale (GLSSLLYGSIPK(ac)AAVR (SEQ ID NO: 220), Tricarboxylate transport protein mitochondrial [97], SLC25A1): 0.44 | L/H ratio of acetylated peptide LVK(ac)VWNLANCK (SEQ ID NO: 39) (GNB2L1 [175], log 2 scale, drug vs DMSO): −0.70 | L/H ratio of acetylated peptide IIVDELK(ac)QEVISTSSK (SEQ ID NO: 38) (GNB2L1 [271], log 2 scale, drug vs DMSO): −0.62 | light to heavy ratio (L/H ratio) of acetylated peptide, log 2 scale (GPIGSIGPK(ac)GIPGEDGYR (SEQ ID NO: 146), Isoform 1 of Collagen alpha-3(VI) chain [2052], COL6A3): −0.80 | L/H ratio of acetylated peptide (GSK(ac)K(ac)AVTK (SEQ ID NO: 490), Histone H2B type 2-E [16:17], HIST2H2BE): 0.00 log 2 | L/H ratio of acetylated peptide (ac)AHYNFK(ac)K (SEQ ID NO: 40) (GTPBP4 [7], log 2 scale, drug vs DMSO): −0.38 | light to heavy ratio (L/H ratio) of acetylated peptide, log 2 scale (GTVRPANDFNPDADAK(ac)ALR (SEQ ID NO: 130), Annexin A6 [370], ANXA6): 0.44 | L/H ratio of acetylated peptide (GYGFGLIK(ac)LDLK (SEQ ID NO: 465), Voltage-dependent anion-selective channel protein 1 [28], VDAC1): 0.00 log 2 | light to heavy ratio (L/H ratio) of acetylated peptide, log 2 scale (GYLTK(ac)EDLR (SEQ ID NO: 216), Protein S100-A10 [28], S100A10): 1.00 | light to heavy ratio (L/H ratio) of acetylated peptide (ac)ACGLVASNLNLK(ac)PGECLR (SEQ ID NO: 575) (Galectin-1 [13], gene LGALS1, inhibitor:DMSO): 0.00 log 2 | light to heavy ratio (L/H ratio) of acetylated peptide ISGASEK(ac)DIVHSGLAYTMER (SEQ ID NO: 543) (Glutamate dehydrogenase 1 mitochondrial [503], gene GLUD1, inhibitor:DMSO): 0.00 log 2 | light to heavy ratio (L/H ratio) of acetylated peptide VVK(ac)QASEGPLK (SEQ ID NO: 597) (Glyceraldehyde-3-phosphate dehydrogenase [263], gene GAPDH, inhibitor:DMSO): 0.00 log 2 | light to heavy ratio (L/H ratio), log 2 scale, acetylated peptide LLLLGAGESGK(ac)STIVK (SEQ ID NO: 769) (Guanine nucleotide-binding protein G(olf) subunit alpha [55], gene GNAL, drug:DMSO): 0.00 | L/H ratio of acetylated peptide AGGK(ac)AGK(ac)DSGK (SEQ ID NO: 15) (H2AFV [5:8], log 2 scale, drug vs DMSO): 0.47 | L/H ratio of acetylated peptide GQQQVFK(ac)GLNDK (SEQ ID NO: 41) (HADHA [406], log 2 scale, drug vs DMSO): 0.46 | L/H ratio of acetylated peptide EPVAVLK(ac)ANR (SEQ ID NO: 9) (HEXB [161], log 2 scale, drug vs DMSO): −0.58 | light to heavy ratio (L/H ratio) of acetylated peptide, log 2 scale (HIK(ac)ENDYYTPTGEFR (SEQ ID NO: 227), Dolichyl-diphosphooligosaccharide--protein glycosyltransferase subunit STT3A [613], STT3A): −0.44 | L/H ratio of acetylated peptide PDPAK(ac)SAPAPK(ac)K (SEQ ID NO: 16) (HIST1H2BO [6:12], log 2 scale, drug vs DMSO): 0.47 | light to heavy ratio (L/H ratio) of acetylated peptide, log 2 scale (HK(ac)DIDILIVR (SEQ ID NO: 178), Isocitrate dehydrogenase [NAD] subunit gamma mitochondrial [159], IDH3G): −1.00 | light to heavy ratio (L/H ratio) of acetylated peptide SLNLK(ac)HIK (SEQ ID NO: 607) (HLA-B associated transcript 1 [188], gene SNORD84, DDX39B, inhibitor:DMSO): 0.00 log 2 | L/H ratio of acetylated peptide K(ac)HPDSSVNFAEFSK (SEQ ID NO: 42) (HMGB2 [30], log 2 scale, drug vs DMSO): −0.48 | L/H ratio of acetylated peptide RGEEGHDPK(ac)EPEQLR (SEQ ID NO: 43) (HNRNPA3 [29], log 2 scale, drug vs DMSO): −0.45 | L/H ratio of acetylated peptide AFITNIPFDVK(ac)WQSLK (SEQ ID NO: 44) (HNRNPM [83], log 2 scale, drug vs DMSO): −0.48 | L/H ratio of acetylated peptide AAEVLNK(ac)HSLSGRPLK (SEQ ID NO: 3) (HNRNPM [134], log 2 scale, drug vs DMSO): −0.87 | L/H ratio of acetylated peptide VK(ac)VLFVR (SEQ ID NO: 45) (HNRNPR [341], log 2 scale, drug vs DMSO): −0.77 | L/H ratio of acetylated peptide GYFEYIEENK(ac)YSR (SEQ ID NO: 46) (HNRNPU [246], log 2 scale, drug vs DMSO): −0.60 | L/H ratio of acetylated peptide TTWVTK(ac)HAAENPGK (SEQ ID NO: 47) (HNRNPU [497], log 2 scale, drug vs DMSO): −0.56 | L/H ratio of acetylated peptide NK(ac)EIFLR (SEQ ID NO: 52) (HSP90B1 [97], log 2 scale, drug vs DMSO): −1.00 | L/H ratio of acetylated peptide […](ac)IR (SEQ ID NO: 49) (HSP90B1 [114], log 2 scale, drug vs DMSO): −0.53 | L/H ratio of acetylated peptide EELVK(ac)NLGTIAK (SEQ ID NO: 48) (HSP90B1 [161], log 2 scale, drug vs DMSO): −0.60 | L/H ratio of acetylated peptide ETLQQHK(ac)LLK (SEQ ID NO: 50) (HSP90B1 [455], log 2 scale, drug vs DMSO): −0.74 | L/H ratio of acetylated peptide IADDK(ac)YNDTFWK (SEQ ID NO: 51) (HSP90B1 [479], log 2 scale, drug vs DMSO): −0.78 | L/H ratio of acetylated peptide NQLTSNPENTVFDAK(ac)R (SEQ ID NO: 54) (HSPA5 [96], log 2 scale, drug vs DMSO): −0.74 | L/H ratio of acetylated peptide […](ac)R (SEQ ID NO: 53) (HSPA5 [213], log 2 scale, drug vs DMSO): −0.54 | L/H ratio of acetylated peptide […](ac)R (SEQ ID NO: 55) (HSPA8 [71], log 2 scale, drug vs DMSO): −0.48 | light to heavy ratio (L/H ratio) of acetylated peptide NQVALNPQNTVFDAK(ac)R (SEQ ID NO: 267) (Heat shock 70 kDa protein 1A/1B [71], HSPA1B, HSPA1A, drug:DMSO): 0.59 log 2

— patent US20140357512A1, “HISTONE DEACETYLASE (HDAC) BIOMARKERS IN MULTIPLE MYELOMA” (priority 2013, published 2014)
